One block for each compound: values may come before it.
How the values were obtained:
[1] = biological target: T1, Prostaglandin G/H synthase 1 (Ovis aries, UniProt P05979); assay: Inhibition of ovine COX-1 at 1 uM
T1 sequence (P05979 whole entry): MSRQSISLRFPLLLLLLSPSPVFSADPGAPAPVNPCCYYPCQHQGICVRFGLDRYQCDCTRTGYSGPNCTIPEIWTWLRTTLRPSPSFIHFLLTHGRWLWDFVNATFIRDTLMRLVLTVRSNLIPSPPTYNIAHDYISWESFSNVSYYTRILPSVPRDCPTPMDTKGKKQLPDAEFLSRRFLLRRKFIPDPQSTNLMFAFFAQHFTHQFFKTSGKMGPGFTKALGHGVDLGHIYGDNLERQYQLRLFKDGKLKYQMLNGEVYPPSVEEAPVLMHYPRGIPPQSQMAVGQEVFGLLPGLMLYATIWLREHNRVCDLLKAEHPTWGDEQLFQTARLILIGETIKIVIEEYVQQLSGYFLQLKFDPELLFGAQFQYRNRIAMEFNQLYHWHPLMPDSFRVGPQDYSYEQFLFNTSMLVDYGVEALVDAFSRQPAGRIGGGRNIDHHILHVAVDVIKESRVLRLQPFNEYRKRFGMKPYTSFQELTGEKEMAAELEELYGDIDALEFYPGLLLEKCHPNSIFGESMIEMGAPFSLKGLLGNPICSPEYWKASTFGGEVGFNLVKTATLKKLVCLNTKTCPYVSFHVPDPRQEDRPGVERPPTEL

[2] = biological target: T2, Prostaglandin G/H synthase 2 (Homo sapiens, UniProt P35354); assay: Inhibition of human recombinant COX-2 at 1 uM
T2 sequence (P35354 whole entry): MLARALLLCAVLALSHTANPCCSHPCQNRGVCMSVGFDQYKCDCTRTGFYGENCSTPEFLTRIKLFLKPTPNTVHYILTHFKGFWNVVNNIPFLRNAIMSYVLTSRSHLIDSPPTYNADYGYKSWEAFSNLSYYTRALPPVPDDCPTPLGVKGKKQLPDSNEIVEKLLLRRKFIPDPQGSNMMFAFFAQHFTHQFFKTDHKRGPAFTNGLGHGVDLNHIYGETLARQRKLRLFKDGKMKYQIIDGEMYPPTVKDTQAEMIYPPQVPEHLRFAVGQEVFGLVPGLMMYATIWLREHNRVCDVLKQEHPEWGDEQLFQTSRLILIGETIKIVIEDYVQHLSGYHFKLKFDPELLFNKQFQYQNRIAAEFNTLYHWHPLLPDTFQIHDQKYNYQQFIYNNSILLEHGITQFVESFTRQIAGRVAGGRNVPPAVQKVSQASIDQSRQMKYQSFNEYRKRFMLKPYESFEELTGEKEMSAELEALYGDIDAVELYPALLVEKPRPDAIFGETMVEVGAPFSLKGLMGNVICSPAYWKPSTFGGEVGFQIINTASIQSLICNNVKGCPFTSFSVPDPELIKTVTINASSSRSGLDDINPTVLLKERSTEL

[3] = biological target: T3, Polyunsaturated fatty acid lipoxygenase ALOX15 (Homo sapiens, UniProt P16050); assay: Inhibition of LOX (unknown origin) at 1 uM
T3 sequence (P16050 whole entry): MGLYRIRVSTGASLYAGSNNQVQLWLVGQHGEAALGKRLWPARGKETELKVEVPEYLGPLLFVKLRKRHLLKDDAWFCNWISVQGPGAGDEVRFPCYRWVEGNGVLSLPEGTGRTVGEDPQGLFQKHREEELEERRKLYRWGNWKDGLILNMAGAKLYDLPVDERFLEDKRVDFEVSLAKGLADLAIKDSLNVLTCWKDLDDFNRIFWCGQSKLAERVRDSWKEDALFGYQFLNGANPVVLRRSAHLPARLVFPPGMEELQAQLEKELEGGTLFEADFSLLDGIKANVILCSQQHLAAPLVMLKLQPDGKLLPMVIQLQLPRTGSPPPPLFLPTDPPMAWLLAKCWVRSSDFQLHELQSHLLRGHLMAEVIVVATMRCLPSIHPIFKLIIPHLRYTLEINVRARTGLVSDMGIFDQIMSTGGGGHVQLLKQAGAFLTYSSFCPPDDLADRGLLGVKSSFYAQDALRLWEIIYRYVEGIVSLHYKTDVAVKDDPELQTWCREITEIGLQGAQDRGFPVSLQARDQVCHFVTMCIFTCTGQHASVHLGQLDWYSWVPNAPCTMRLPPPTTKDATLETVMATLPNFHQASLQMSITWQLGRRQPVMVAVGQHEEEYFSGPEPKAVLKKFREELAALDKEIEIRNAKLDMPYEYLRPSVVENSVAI

RAW264.7 [4] = assay: Anti-inflammatory activity in mouse RAW264.7 cells assessed as inhibition of LPS-induced IL-6 production incubated for 1 hr by EIA relative to control; assay type: functional
RAW264.7 [5] = assay: Anti-inflammatory activity in mouse RAW264.7 cells assessed as inhibition of LPS-induced TNFalpha production incubated for 1 hr by EIA relative to control; assay type: functional
Rattus norvegicus [6] = assay: Anti-inflammatory activity in Carageenan-induced foot paw edema in Swiss albino rat assessed as reduction in volume of paw edema measured after 1 hr relative to control; assay type: functional; set-up: scale not given: the % may be the effect or the level left
Rattus norvegicus [7] = assay: Anti-inflammatory activity in Carageenan-induced foot paw edema in Swiss albino rat assessed as reduction in volume of paw edema measured after 2 hr relative to control; assay type: functional; set-up: scale not given: the % may be the effect or the level left
Rattus norvegicus [8] = assay: Anti-inflammatory activity in Carrageenan-induced paw edema in Wistar albino rat assessed as reduction in paw edema measured after 1 hr relative to control; assay type: functional; set-up: scale not given: the % may be the effect or the level left
Rattus norvegicus [9] = assay: Anti-inflammatory activity against Carrageenan-induced paw edema in Wistar albino rat ulcerogenic activity assessed as reduction in severity index; assay type: functional
Rattus norvegicus [10] = assay: Anti-inflammatory activity in Carrageenan-induced paw edema in Wistar albino rat assessed as inhibition of edema measured after 3 hrs relative to control; assay type: functional
Rattus norvegicus [11] = assay: Anti-inflammatory activity in Carrageenan-induced paw edema in Wistar albino rat assessed as reduction in paw edema measured after 3 hr relative to control; assay type: functional; set-up: scale not given: the % may be the effect or the level left
Rattus norvegicus [12] = assay: Anti-inflammatory activity against Carrageenan-induced paw edema in PO dosed Wistar albino rat assessed as inhibition of edema measured after 4 hr relative to control; assay type: functional; set-up: scale not given: the % may be the effect or the level left
Rattus norvegicus [13] = assay: Anti-inflammatory activity against Carrageenan-induced paw edema in PO dosed Wistar albino rat assessed as inhibition of edema measured after 1 hr relative to control; assay type: functional; set-up: scale not given: the % may be the effect or the level left
Rattus norvegicus [14] = assay: Anti-inflammatory activity in Carageenan-induced foot paw edema in Swiss albino rat assessed as reduction in volume of paw edema measured after 6 hr relative to control; assay type: functional; set-up: scale not given: the % may be the effect or the level left
Rattus norvegicus [15] = assay: Anti-inflammatory activity in Carrageenan-induced paw edema in PO dosed Swiss albino rat model at 30 mg/kg assessed as inhibition in volume of edema measured after 1 hrs relative to control; assay type: functional
Rattus norvegicus [16] = assay: Anti-inflammatory activity in Carrageenan-induced paw edema in Wistar albino rat assessed as reduction in paw edema measured after 2 hr relative to control; assay type: functional; set-up: scale not given: the % may be the effect or the level left
Rattus norvegicus [17] = assay: Anti-inflammatory activity in Carageenan-induced foot paw edema in Swiss albino rat assessed as reduction in volume of paw edema measured after 4 hr relative to control; assay type: functional; set-up: scale not given: the % may be the effect or the level left
Rattus norvegicus [18] = assay: Anti-ulcerative activity in aspirin induced Wistar rat ulcer model assessed as inhibition of ulcer index at 20 mg/kg,po; assay type: functional
Mus musculus [19] = assay: Anti-inflammatory activity in Carrageenan-induced paw edema in PO dosed mouse at 100 mg/kg assessed as inhibition of edema measured after 3 hr relative to control; assay type: functional; set-up: scale not given: the % may be the effect or the level left
Rattus norvegicus [20] = assay: Anti-inflammatory activity in Carageenan-induced paw edema Wistar rat model assessed as reduction in paw edema volume relative to control; assay type: functional; set-up: scale not given: the % may be the effect or the level left
Rattus norvegicus [21] = assay: Anti-inflammatory activity against Carrageenan-induced paw edema in PO dosed Wistar albino rat assessed as inhibition of edema measured after 2 hr relative to control; assay type: functional; set-up: scale not given: the % may be the effect or the level left
[22] = biological target: T4, Polyunsaturated fatty acid 5-lipoxygenase (Homo sapiens, UniProt P09917); assay: Inhibition of 5-LOX (unknown origin) after 5 mins by colorimetric method
T4 sequence (P09917 whole entry): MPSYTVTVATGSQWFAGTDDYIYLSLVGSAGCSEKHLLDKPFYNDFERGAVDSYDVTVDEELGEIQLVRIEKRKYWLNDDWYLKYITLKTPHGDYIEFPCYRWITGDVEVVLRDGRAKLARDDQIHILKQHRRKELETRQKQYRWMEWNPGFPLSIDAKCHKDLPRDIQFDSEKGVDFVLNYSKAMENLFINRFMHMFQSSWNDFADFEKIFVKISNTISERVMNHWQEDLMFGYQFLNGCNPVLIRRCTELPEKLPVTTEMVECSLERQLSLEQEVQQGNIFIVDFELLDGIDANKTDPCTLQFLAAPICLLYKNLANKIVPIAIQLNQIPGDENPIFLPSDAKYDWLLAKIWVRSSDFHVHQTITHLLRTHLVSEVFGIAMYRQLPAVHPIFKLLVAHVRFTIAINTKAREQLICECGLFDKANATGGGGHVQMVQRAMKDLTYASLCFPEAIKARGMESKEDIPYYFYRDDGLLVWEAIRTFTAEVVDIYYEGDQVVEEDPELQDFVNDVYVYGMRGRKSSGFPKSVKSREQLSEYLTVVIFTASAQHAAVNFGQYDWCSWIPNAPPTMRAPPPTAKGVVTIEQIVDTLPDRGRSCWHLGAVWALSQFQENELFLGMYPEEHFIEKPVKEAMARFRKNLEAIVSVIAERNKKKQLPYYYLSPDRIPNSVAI

[23] = biological target: T3, Polyunsaturated fatty acid lipoxygenase ALOX15; assay: Inhibition of 15-LOX (unknown origin)
[24] = biological target: T1, Prostaglandin G/H synthase 1; assay: Inhibition of ovine COX-1 by EIA method
Rattus norvegicus [25] = assay: Anti-inflammatory activity against Carrageenan-induced paw edema in PO dosed Wistar albino rat assessed as inhibition of edema measured after 3 hr relative to control; assay type: functional; set-up: scale not given: the % may be the effect or the level left
Mus musculus [26] = assay: Anti-inflammatory activity against Carrageenan-induced paw edema in mouse model assessed as reduction of edema at 50 mg/kg measured after 4 hrs relative to control; assay type: functional; set-up: scale not given: the % may be the effect or the level left
[27] = Anti-inflammatory activity assessed using bovine serum albumin/egg albumin proteins assessed as protein denaturation measured at 95 degC for 20 mins by measuring turbidity by UV-Vis spectrophotometer; assay type: functional
Rattus norvegicus [28] = assay: Anti-inflammatory activity in Carrageenan-induced paw edema in PO dosed rat model at 30 mg/kg measured after 4 hrs relative to control; assay type: functional
Rattus norvegicus [29] = assay: Anti-inflammatory activity in Carrageenan-induced rat paw edema in Wistar rat assessed as reduction in inhibition of edema measured after 4 hrs relative to control; assay type: functional; set-up: scale not given: the % may be the effect or the level left
Erythrocyte = assay: Anti-inflammatory activity in human red blood cells assessed as stabilization of cell membrane; assay type: functional, cell-based
Rattus norvegicus [30] = assay: Anti-inflammatory activity against formalin-induced foot paw edema in PO dosed rat at 10 mg/kg assessed as inhibition of edema measured after 4 hr relative to control; assay type: functional

IC50 [1]: 0.98 µM
IC50 [2]: 11.6 µM
IC50 [3]: 9.51 µM
SMILES: COc1ccc(-c2nc3c(C(N)=O)cccc3[nH]2)cc1
inhibition (INH) (RAW264.7 [4]): 91%
inhibition (INH) (RAW264.7 [5]): 91%

SMILES: COc1ccc2c(c1)c(CC(=O)O)c(C)n2C(=O)c1ccc(Cl)cc1 [INDOMETHACIN]
Activity (Rattus norvegicus [6]): 43.3%
Activity (Rattus norvegicus [7]): 56.8%
Activity (Rattus norvegicus [8]): 33.15%
Activity (Rattus norvegicus [9]): 1.96 mm
inhibition (INH) (Rattus norvegicus [10]): 86.7%
Activity (Rattus norvegicus [11]): 57.79%
Activity (Rattus norvegicus [12]): 30.95%
Activity (Rattus norvegicus [13]): 40%
Activity (Rattus norvegicus [14]): 85.9%
inhibition in vivo at 30 mg/kg (Rattus norvegicus [15]): 71.2%
Activity (Rattus norvegicus [16]): 50.81%
Activity (Rattus norvegicus [17]): 74.56%
UI (Rattus norvegicus [18]): 20.2
Activity (Mus musculus [19]): 47.76%
Activity (Rattus norvegicus [20]): 79.41%
Activity (Rattus norvegicus [21]): 28.89%

IC50 [22]: 0.32 µM
IC50 [23]: 1.02 µM
IC50 [24]: 9.85 µM
SMILES: O=C1c2ccccc2C(=O)N1c1nc2cc([N+](=O)[O-])ccc2n1Cc1ccc(-c2ccccc2)cc1
Activity (Rattus norvegicus [20]): 81.88%

IC50 [27]: 54.65 µg/mL
EC50 (Erythrocyte): 11.7 µg/mL
SMILES: O=C([O-])Cc1ccccc1Nc1c(Cl)cccc1Cl.[Na+] [DICLOFENAC SODIUM]
Activity (Rattus norvegicus [25]): 60.82%
Activity (Mus musculus [26]): 76.25%
inhibition in vivo at 30 mg/kg (Rattus norvegicus [28]): 93%
Activity (Rattus norvegicus [29]): 78.05%
inhibition in vivo at 10 mg/kg (Rattus norvegicus [30]): 92.9%
